Measurements as given in PubChem BioAssay AID2060485 (Molecular Pharmacology Branch, DTP, NCI, 2025).

Tested on: A375 multi-cell spheroids with HUVEC/MSC, viability
Assay: Anticancer human tumor A375 cell line growth inhibition [GQUAD];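 also: spheroids exposed to compounds for seven days before readout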
Settings: for IC50: curve of first compound; for viability, T/C: stronger effect = lower value
From the text: DNA G-quadruplex Stabilizer Agents in Combinations in Complex Spheroids
A high-throughput screen of multi-cell type tumor spheroids was designed to identify active combinations of DNA G-quadruplex stabilizer agents and targeted small molecules. Complex spheroids include a stromal component modeled by human endothelial cells (HUVEC) and fibroblasts modeled by human mesenchymal stem cells (MSCs). The concentration ranges selected for each drug and investigational agent were based upon clinically achievable concentrations if the clinical Cmax of the agent was known.
Compounds. The drugs and investigational agents: pidnarulex (CX-5461; NSC782164), APTO-253 (NSC789042), BRACO-19 (NSC847499), peposertib (NSC802822), ceralasertib (NSC780249), elimusertib (NSC800525), camonsertib (NSC841442), AZD-1390 (NSC803789), olaparib (NSC753686), talazoparib (NSC767125), ART-558 (NSC835418), sotorasib (NSC818433), MRTX-1133 (NSC836407), SN-38 (NSC673596), topotecan (NSC609699), etoposide (NSC141540), doxorubicin (NSC123127), gemcitabine (NSC613327), 5-fluorouracil (NSC19893), paclitaxel (NSC125973), vemurafenib (NSC761431), panobinostat (NSC761190), R-306465 (JNJ-16241199; NSC773264), adavosertib (NSC754352), TP-3654 (NSC805149), carboplatin (NSC241240), KSQ-4279 (NSC840948), and staurosporine (NSC755774) were obtained from the National Cancer Institute (NCI) Developmental Therapeutics Program Chemical Repository (34). The FDA-approved anticancer drug set is available from the NCI Developmental Therapeutics Program. […] The stock solutions were prepared in dimethyl sulfoxide (DMSO, Sigma-Aldrich, St. Louis, MO, cat. D2650) at 800-fold the tested concentration and stored at -70 degrees C prior to their use. All drugs and investigational agents were tested over a range starting from a high concentration at or near the clinical Cmax and decreasing in half-log increments. If the clinical Cmax for an agent had not been determined, the highest concentration tested was 10 microM.
2.3 Cell Culture. All cells were maintained in an incubator at 37 degrees C and 5% CO2 with 95% humidity. The PDC lines were cultured according to standard operating procedures established by the NCI PDMR. All PDCs were thawed and cultured in Matrigel-coated flasks prepared with a working solution of 1X Ham's F-12 nutrient mix, without supplementation (Invitrogen, cat. 11765054), 100 U/mL penicillin-streptomycin (Invitrogen, cat. 15140122), and 2.5% Matrigel (Corning Inc., cat. 354248) for the first three passages. The 857933-349-R-J2-PDC line was cultured in 6C/Colon 1B media, which includes advanced DMEM/F-12 (Thermo Fisher Scientific, cat. 12634028), 10 mM HEPES (Thermo Fisher Scientific, cat. 15630080), 1X GlutaMAX supplement (Thermo Fisher Scientific, cat. 35050061), 0.1 mg/mL primocin (InvivoGen, cat. ant-pm-2), 10% defined fetal bovine serum, heat inactivated (HyClone Laboratories Inc., cat. SH30070.03HI), 50% L-WRN conditioned media (ATCC, cat. CRL-3276), 1.25 mM N-Acetyl-L-cysteine (Sigma-Aldrich, cat. A9165), 10 mM nicotinamide (Sigma-Aldrich, cat. N0636), 1X B-27 supplement (Thermo Fisher Scientific, cat. 17504044), 1X N-2 supplement (Thermo Fisher Scientific, cat. 17502048), 10 microM Y-27632 dihydrochloride (Tocris Bioscience, cat. 1254), and 50 ng/mL human EGF recombinant protein (Thermo Fisher Scientific, cat. PHG0311). The 485176-168-R4-J1-PDC line was cultured in Panc media, which includes all 6C/Colon 1B media components plus 100 ng/mL human FGF-10 (Thermo Fisher Scientific, cat. 100-26), 500 nM SB-431542 (Selleckchem, cat. S1067), and gastrin (Tocris, cat. 3006).
[…]

[1] = second compound 0.0316 µM, first compound 0.0316 µM
[2] = second compound 0.0316 µM, first compound 0.1 µM
[3] = second compound 0.0316 µM, first compound 0.316 µM
[4] = second compound 0.0316 µM, first compound 1 µM
[5] = second compound 0.0316 µM, first compound 3.16 µM
[6] = second compound 0.0316 µM, first compound 10 µM
[7] = second compound 0.1 µM, first compound 0.0316 µM
[8] = second compound 0.1 µM, first compound 0.1 µM
[9] = second compound 0.1 µM, first compound 0.316 µM
[10] = second compound 0.1 µM, first compound 1 µM
[11] = second compound 0.1 µM, first compound 3.16 µM
[12] = second compound 0.1 µM, first compound 10 µM
[13] = second compound 0.316 µM, first compound 0.0316 µM
[14] = second compound 0.316 µM, first compound 0.1 µM
[15] = second compound 0.316 µM, first compound 0.316 µM
[16] = second compound 0.316 µM, first compound 1 µM
[17] = second compound 0.316 µM, first compound 3.16 µM
[18] = second compound 0.316 µM, first compound 10 µM
[19] = second compound 1 µM, first compound 0.0316 µM
[20] = second compound 1 µM, first compound 0.1 µM
[21] = second compound 1 µM, first compound 0.316 µM
[22] = second compound 1 µM, first compound 1 µM
[23] = second compound 1 µM, first compound 3.16 µM
[24] = second compound 1 µM, first compound 10 µM
[25] = second compound 3.16 µM, first compound 0.0316 µM
[26] = second compound 3.16 µM, first compound 0.1 µM
[27] = second compound 3.16 µM, first compound 0.316 µM
[28] = second compound 3.16 µM, first compound 1 µM
[29] = second compound 3.16 µM, first compound 3.16 µM
[30] = second compound 3.16 µM, first compound 10 µM
[31] = second compound 10 µM, first compound 0.0316 µM
[32] = second compound 10 µM, first compound 0.1 µM
[33] = second compound 10 µM, first compound 0.316 µM
[34] = second compound 10 µM, first compound 1 µM
[35] = second compound 10 µM, first compound 3.16 µM
[36] = second compound 10 µM, first compound 10 µM

Q: For `CC(C)n1c(=O)n(C)c2cnc3cc(F)c(-c4ccc(OCCCN5CCCCC5)nc4)cc3c21` + CN(C)c1ccc(Nc2c3ccc(NC(=O)CCN4CCCC4)cc3nc3cc(NC(=O)CCN4CCCC4)ccc23)cc1, which IC50 (second compound 0.0316 µM) is on record?
A: > 10000 nM

Q: And the IC50 (second compound 0.1 µM)?
A: > 10000 nM

Q: And the IC50 (second compound 0.316 µM)?
A: > 10000 nM

Q: What about the IC50 (second compound 1 µM) of the same molecule?
A: > 10000 nM

Q: What about the IC50 (second compound 3.16 µM) of the same molecule?
A: > 10000 nM

Q: What about the IC50 (second compound 10 µM) of the same molecule?
A: 4830 nM

Q: And the viability, T/C [1]?
A: 109%

Q: What about the viability, T/C [2] of the same molecule?
A: 99.5%

Q: What about the viability, T/C [3] of the same molecule?
A: 105%

Q: And the viability, T/C [4]?
A: 106%

Q: What about the viability, T/C [5] of the same molecule?
A: 114%

Q: What about the viability, T/C [6] of the same molecule?
A: 88.3%

Q: And the viability, T/C [7]?
A: 108%

Q: What about the viability, T/C [8] of the same molecule?
A: 106%

Q: What about the viability, T/C [9] of the same molecule?
A: 97.9%

Q: And the viability, T/C [10]?
A: 98.5%

Q: What about the viability, T/C [11] of the same molecule?
A: 115%

Q: And the viability, T/C [12]?
A: 91.2%

Q: And the viability, T/C [13]?
A: 103%

Q: And the viability, T/C [14]?
A: 97.1%

Q: And the viability, T/C [15]?
A: 103%

Q: What about the viability, T/C [16] of the same molecule?
A: 109%

Q: What about the viability, T/C [17] of the same molecule?
A: 116%

Q: What about the viability, T/C [18] of the same molecule?
A: 78.3%

Q: And the viability, T/C [19]?
A: 103%

Q: What about the viability, T/C [20] of the same molecule?
A: 102%

Q: What about the viability, T/C [21] of the same molecule?
A: 108%

Q: And the viability, T/C [22]?
A: 108%

Q: And the viability, T/C [23]?
A: 110%

Q: What about the viability, T/C [24] of the same molecule?
A: 78%

Q: And the viability, T/C [25]?
A: 97.4%

Q: And the viability, T/C [26]?
A: 98.1%

Q: And the viability, T/C [27]?
A: 104%

Q: What about the viability, T/C [28] of the same molecule?
A: 103%

Q: And the viability, T/C [29]?
A: 107%

Q: And the viability, T/C [30]?
A: 59.6%

Q: And the viability, T/C [31]?
A: 102%

Q: What about the viability, T/C [32] of the same molecule?
A: 96.4%

Q: And the viability, T/C [33]?
A: 94.2%

Q: What about the viability, T/C [34] of the same molecule?
A: 89.4%

Q: And the viability, T/C [35]?
A: 61%

Q: And the viability, T/C [36]?
A: 30.5%

Q: Which IC50 (second compound 0.0316 µM) does the source give for `CC1COCCN1c1cc(C2(O)CC3CCC(C2)O3)c2cnn(-c3ccn[nH]3)c2n1` (centres undefined) + CN(C)c1ccc(Nc2c3ccc(NC(=O)CCN4CCCC4)cc3nc3cc(NC(=O)CCN4CCCC4)ccc23)cc1 here?
A: 199 nM

Q: And the IC50 (second compound 0.1 µM)?
A: 188 nM

Q: What about the IC50 (second compound 0.316 µM) of the same molecule?
A: 210 nM

Q: And the IC50 (second compound 1 µM)?
A: 203 nM

Q: What about the IC50 (second compound 3.16 µM) of the same molecule?
A: 226 nM

Q: And the IC50 (second compound 10 µM)?
A: 204 nM

Q: And the viability, T/C [1]?
A: 94.4%

Q: And the viability, T/C [2]?
A: 70.8%

Q: And the viability, T/C [3]?
A: 36.1%

Q: And the viability, T/C [4]?
A: 15.5%

Q: And the viability, T/C [5]?
A: 11.3%

Q: What about the viability, T/C [6] of the same molecule?
A: 6.63%

Q: What about the viability, T/C [7] of the same molecule?
A: 97.4%

Q: What about the viability, T/C [8] of the same molecule?
A: 70.4%

Q: And the viability, T/C [9]?
A: 32.7%

Q: What about the viability, T/C [10] of the same molecule?
A: 15.7%

Q: What about the viability, T/C [11] of the same molecule?
A: 8.49%

Q: What about the viability, T/C [12] of the same molecule?
A: 6.23%

Q: And the viability, T/C [13]?
A: 101%

Q: What about the viability, T/C [14] of the same molecule?
A: 70.7%

Q: And the viability, T/C [15]?
A: 40.5%

Q: What about the viability, T/C [16] of the same molecule?
A: 13.9%

Q: What about the viability, T/C [17] of the same molecule?
A: 10.9%

Q: What about the viability, T/C [18] of the same molecule?
A: 7.23%

Q: And the viability, T/C [19]?
A: 97.9%

Q: And the viability, T/C [20]?
A: 72.4%

Q: What about the viability, T/C [21] of the same molecule?
A: 35.6%

Q: And the viability, T/C [22]?
A: 16.3%

Q: What about the viability, T/C [23] of the same molecule?
A: 11.7%

Q: And the viability, T/C [24]?
A: 7.1%

Q: And the viability, T/C [25]?
A: 97.2%

Q: And the viability, T/C [26]?
A: 72.7%

Q: And the viability, T/C [27]?
A: 41%

Q: What about the viability, T/C [28] of the same molecule?
A: 17.8%

Q: And the viability, T/C [29]?
A: 11.1%

Q: And the viability, T/C [30]?
A: 7.14%

Q: And the viability, T/C [31]?
A: 87.7%

Q: What about the viability, T/C [32] of the same molecule?
A: 67.8%

Q: What about the viability, T/C [33] of the same molecule?
A: 39.7%

Q: And the viability, T/C [34]?
A: 16%

Q: And the viability, T/C [35]?
A: 11.5%

Q: What about the viability, T/C [36] of the same molecule?
A: 6.9%
